Results published in publication PMC4685510, “A Cell Biologist’s Field Guide to Aurora Kinase Inhibitors” (Frontiers in Oncology, 2015).

What was measured:
Assay in all cases: biochemical
Assay type in all cases: biochemical
[1] = biological target: T1, 363 human kinases (including Aurora A/B/C) (Homo sapiens, UniProt Q96L34); details: MARK4; for remaining activity at 0.1 µM: 100 nM; for remaining activity at 0.1 µM / remaining activity at 0.5 µM: read-out: % Enzyme Activity (relative to DMSO controls)
T1 sequence (Q96L34 1-752): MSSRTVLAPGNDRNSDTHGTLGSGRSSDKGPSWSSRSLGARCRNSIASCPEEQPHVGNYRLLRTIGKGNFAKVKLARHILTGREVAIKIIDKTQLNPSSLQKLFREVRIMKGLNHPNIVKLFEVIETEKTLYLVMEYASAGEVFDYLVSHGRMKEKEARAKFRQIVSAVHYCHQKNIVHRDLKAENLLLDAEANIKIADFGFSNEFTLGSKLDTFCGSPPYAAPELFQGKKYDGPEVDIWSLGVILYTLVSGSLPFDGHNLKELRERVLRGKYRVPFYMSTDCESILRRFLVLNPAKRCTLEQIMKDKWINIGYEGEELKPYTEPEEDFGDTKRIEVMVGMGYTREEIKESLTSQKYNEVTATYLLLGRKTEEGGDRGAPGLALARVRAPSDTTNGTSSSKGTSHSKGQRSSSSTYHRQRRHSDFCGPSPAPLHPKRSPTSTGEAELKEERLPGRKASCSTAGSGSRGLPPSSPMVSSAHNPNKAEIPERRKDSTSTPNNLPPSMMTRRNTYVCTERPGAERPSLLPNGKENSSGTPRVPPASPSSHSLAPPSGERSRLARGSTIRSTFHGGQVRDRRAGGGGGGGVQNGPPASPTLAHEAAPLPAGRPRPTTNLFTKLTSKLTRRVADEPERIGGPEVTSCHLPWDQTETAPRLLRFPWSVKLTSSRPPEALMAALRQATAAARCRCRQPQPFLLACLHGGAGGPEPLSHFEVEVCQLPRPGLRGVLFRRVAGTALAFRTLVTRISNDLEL
From the text: (§1) However, the Aurora A/B selectivity ratios derived from our in vitro and in vivo data can be compared to prioritize inhibitors.

[2] = biological target: 363 human kinases (including Aurora A/B/C) (Homo sapiens, UniProt P78362); details: SRPK2; for remaining activity at 0.1 µM: 100 nM; for remaining activity at 0.1 µM / remaining activity at 0.5 µM: read-out: % Enzyme Activity (relative to DMSO controls)
Sequence of 363 human kinases (including Aurora A/B/C) (Homo sapiens, UniProt P78362) (P78362 whole entry): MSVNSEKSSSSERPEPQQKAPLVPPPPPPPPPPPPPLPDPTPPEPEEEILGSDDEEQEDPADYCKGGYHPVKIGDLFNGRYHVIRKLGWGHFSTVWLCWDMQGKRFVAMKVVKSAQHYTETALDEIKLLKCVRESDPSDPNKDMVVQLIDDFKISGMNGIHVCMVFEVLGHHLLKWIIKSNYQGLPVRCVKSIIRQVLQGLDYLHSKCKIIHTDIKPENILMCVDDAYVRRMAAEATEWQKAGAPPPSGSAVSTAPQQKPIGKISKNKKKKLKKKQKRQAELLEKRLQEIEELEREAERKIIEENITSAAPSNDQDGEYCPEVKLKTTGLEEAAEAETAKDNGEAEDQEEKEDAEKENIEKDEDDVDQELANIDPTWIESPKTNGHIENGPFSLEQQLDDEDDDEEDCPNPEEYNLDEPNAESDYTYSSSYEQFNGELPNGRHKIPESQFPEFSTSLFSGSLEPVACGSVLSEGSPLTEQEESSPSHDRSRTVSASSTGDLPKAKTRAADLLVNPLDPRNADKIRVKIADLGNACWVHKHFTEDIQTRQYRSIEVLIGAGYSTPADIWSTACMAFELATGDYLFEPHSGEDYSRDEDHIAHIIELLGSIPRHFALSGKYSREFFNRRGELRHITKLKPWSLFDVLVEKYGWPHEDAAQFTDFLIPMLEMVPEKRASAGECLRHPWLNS
From the text: as §1

[3] = biological target: 363 human kinases (including Aurora A/B/C) (Homo sapiens, UniProt P07333); details: FMS; for remaining activity at 0.1 µM: 100 nM; for remaining activity at 0.1 µM / remaining activity at 0.5 µM: read-out: % Enzyme Activity (relative to DMSO controls)
Sequence of 363 human kinases (including Aurora A/B/C) (Homo sapiens, UniProt P07333) (P07333 20-972): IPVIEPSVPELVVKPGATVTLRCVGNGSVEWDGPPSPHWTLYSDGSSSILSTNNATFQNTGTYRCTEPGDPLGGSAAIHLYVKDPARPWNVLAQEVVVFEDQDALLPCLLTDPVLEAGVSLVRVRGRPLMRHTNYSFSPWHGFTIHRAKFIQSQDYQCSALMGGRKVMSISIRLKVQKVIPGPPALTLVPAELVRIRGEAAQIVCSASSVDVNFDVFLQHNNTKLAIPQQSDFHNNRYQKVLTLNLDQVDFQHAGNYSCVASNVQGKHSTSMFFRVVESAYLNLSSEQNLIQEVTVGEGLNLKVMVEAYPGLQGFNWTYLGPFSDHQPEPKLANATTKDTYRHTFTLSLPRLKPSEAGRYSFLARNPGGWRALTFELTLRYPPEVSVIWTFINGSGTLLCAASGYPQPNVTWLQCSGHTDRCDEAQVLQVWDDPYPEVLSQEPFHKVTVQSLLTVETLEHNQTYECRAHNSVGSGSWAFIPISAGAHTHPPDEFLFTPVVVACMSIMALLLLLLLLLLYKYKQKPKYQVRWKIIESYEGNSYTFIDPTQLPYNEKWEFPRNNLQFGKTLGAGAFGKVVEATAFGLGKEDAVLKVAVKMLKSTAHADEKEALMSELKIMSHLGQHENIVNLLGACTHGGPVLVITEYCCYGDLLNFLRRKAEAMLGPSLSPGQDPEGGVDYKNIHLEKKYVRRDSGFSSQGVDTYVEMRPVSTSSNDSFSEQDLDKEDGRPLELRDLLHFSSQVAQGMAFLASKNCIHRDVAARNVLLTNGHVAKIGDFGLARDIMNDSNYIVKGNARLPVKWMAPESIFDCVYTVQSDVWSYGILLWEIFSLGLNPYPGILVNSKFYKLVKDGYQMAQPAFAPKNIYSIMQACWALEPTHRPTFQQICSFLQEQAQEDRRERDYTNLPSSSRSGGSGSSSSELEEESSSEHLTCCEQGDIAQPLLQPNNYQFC
From the text: as §1

[4] = biological target: 363 human kinases (including Aurora A/B/C) (Homo sapiens, UniProt O94921); details: CDK14/cyclin Y (PFTK1), [ATP] 10 µM; for remaining activity at 0.1 µM: 100 nM; for remaining activity at 0.1 µM / remaining activity at 0.5 µM: read-out: % Enzyme Activity (relative to DMSO controls)
Sequence of 363 human kinases (including Aurora A/B/C) (Homo sapiens, UniProt O94921) (O94921 whole entry): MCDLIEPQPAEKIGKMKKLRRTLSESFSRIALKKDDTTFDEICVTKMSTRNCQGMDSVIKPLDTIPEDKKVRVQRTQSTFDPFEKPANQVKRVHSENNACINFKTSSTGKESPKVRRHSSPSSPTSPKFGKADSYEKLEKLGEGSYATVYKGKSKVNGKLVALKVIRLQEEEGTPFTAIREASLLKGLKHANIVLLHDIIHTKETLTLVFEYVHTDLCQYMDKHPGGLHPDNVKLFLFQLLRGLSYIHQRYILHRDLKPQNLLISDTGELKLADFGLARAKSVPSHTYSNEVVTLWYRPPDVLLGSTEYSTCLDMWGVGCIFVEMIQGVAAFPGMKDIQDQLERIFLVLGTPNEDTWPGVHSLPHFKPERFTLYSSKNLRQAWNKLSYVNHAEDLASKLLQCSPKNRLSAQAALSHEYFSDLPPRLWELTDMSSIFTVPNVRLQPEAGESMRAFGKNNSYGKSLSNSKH
From the text: as §1

[5] = biological target: 363 human kinases (including Aurora A/B/C) (Homo sapiens, UniProt Q13464); details: ROCK1; for remaining activity at 0.1 µM: 100 nM; for remaining activity at 0.1 µM / remaining activity at 0.5 µM: read-out: % Enzyme Activity (relative to DMSO controls)
Sequence of 363 human kinases (including Aurora A/B/C) (Homo sapiens, UniProt Q13464) (Q13464 whole entry): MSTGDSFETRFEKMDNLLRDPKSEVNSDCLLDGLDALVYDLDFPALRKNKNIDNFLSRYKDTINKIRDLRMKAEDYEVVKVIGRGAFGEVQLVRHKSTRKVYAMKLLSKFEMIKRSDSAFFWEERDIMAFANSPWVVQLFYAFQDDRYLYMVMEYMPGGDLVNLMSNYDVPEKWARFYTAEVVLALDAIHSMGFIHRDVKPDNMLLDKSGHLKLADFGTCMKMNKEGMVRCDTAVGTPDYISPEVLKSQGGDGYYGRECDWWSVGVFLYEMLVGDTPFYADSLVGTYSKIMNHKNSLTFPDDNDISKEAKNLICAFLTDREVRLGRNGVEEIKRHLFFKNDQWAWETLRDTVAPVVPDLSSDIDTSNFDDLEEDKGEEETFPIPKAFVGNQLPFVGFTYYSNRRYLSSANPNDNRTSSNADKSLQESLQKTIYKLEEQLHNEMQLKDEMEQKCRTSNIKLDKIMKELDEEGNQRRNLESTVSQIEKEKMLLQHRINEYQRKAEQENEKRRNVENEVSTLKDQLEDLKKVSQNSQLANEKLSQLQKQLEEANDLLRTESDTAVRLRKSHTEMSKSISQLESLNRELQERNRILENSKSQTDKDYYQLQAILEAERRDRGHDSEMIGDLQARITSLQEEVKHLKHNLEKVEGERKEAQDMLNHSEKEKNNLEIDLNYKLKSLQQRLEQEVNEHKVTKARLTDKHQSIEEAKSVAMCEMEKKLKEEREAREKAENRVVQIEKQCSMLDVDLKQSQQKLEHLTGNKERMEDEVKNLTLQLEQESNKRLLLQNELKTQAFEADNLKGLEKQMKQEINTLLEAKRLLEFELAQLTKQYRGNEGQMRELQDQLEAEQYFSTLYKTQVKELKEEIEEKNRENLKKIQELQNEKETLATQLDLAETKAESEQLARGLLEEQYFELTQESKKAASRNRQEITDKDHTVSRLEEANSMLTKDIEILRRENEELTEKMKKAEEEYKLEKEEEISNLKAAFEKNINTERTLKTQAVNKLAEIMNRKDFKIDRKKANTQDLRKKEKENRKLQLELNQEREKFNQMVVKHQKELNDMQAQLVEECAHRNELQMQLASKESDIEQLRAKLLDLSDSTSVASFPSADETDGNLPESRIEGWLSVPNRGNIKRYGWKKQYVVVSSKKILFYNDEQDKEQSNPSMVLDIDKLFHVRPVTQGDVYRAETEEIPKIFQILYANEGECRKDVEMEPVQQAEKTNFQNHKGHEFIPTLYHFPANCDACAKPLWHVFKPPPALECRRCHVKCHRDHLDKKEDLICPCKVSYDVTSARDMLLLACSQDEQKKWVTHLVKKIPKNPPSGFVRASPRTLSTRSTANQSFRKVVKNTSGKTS
From the text: as §1

[6] = biological target: 363 human kinases (including Aurora A/B/C) (Homo sapiens, UniProt Q9H4A3); details: WNK1; for remaining activity at 0.1 µM: 100 nM; for remaining activity at 0.1 µM / remaining activity at 0.5 µM: read-out: % Enzyme Activity (relative to DMSO controls)
From the text: as §1

[7] = biological target: T2, 363 human kinases (including Aurora A/B/C) (Homo sapiens, UniProt Q9H093); details: SNARK/NUAK2; for remaining activity at 0.1 µM: 100 nM; for remaining activity at 0.1 µM / remaining activity at 0.5 µM: read-out: % Enzyme Activity (relative to DMSO controls)
T2 sequence (Q9H093 1-628): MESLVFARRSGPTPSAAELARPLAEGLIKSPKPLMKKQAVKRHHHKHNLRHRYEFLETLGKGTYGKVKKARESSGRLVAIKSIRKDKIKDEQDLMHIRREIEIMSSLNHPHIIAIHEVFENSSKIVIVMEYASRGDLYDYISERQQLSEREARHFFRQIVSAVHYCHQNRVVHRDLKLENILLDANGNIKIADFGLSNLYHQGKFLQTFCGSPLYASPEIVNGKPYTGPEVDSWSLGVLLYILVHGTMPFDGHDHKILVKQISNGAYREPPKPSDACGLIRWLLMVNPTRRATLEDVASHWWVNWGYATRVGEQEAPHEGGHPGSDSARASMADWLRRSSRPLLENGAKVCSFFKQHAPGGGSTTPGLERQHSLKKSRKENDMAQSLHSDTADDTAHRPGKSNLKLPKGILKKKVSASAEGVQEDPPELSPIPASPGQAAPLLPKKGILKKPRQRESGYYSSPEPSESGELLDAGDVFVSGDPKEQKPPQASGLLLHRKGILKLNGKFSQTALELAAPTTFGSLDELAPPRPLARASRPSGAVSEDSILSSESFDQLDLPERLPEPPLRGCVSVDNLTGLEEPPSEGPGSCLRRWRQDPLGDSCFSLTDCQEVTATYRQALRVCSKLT
From the text: as §1

[8] = biological target: 363 human kinases (including Aurora A/B/C) (Homo sapiens, UniProt P50613); details: CDK7/cyclin H, [ATP] 50 µM; for remaining activity at 0.1 µM: 100 nM; for remaining activity at 0.1 µM / remaining activity at 0.5 µM: read-out: % Enzyme Activity (relative to DMSO controls)
Sequence of 363 human kinases (including Aurora A/B/C) (Homo sapiens, UniProt P50613) (P50613 whole entry): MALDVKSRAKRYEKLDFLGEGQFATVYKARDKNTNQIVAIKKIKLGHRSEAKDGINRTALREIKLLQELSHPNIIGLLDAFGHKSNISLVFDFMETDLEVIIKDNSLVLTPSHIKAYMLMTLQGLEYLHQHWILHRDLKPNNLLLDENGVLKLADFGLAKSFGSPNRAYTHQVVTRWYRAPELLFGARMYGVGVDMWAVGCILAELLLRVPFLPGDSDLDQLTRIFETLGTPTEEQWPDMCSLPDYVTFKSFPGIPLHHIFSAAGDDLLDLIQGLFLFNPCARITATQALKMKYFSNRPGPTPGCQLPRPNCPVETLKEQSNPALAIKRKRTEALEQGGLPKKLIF
From the text: as §1

[9] = biological target: T3, 363 human kinases (including Aurora A/B/C) (Homo sapiens, UniProt Q9NRH2); details: SNRK; for remaining activity at 0.1 µM: 100 nM; for remaining activity at 0.1 µM / remaining activity at 0.5 µM: read-out: % Enzyme Activity (relative to DMSO controls)
T3 sequence (Q9NRH2 1-765): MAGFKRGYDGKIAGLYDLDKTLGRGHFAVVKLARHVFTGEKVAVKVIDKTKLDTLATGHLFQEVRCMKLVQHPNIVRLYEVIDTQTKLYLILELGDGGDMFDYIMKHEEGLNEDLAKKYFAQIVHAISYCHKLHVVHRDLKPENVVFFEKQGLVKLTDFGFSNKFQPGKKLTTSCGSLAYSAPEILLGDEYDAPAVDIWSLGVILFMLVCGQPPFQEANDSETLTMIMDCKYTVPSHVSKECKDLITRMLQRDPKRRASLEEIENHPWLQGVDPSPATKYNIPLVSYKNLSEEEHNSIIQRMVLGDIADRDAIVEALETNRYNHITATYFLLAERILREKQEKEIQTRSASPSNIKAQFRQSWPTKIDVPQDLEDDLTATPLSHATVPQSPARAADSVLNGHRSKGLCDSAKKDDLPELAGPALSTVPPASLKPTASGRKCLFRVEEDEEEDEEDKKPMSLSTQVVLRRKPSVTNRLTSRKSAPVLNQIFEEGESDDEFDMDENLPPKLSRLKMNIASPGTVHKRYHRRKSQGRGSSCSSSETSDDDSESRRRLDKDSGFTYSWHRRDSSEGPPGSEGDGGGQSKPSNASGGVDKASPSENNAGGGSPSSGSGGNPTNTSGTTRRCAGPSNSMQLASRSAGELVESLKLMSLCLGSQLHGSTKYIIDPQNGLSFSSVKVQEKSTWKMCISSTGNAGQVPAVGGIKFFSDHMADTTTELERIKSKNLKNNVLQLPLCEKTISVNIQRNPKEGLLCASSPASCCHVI
From the text: as §1

[10] = biological target: 363 human kinases (including Aurora A/B/C) (Homo sapiens, UniProt O15075); details: DCAMKL1, [ATP] 50 µM; for remaining activity at 0.1 µM: 100 nM; for remaining activity at 0.1 µM / remaining activity at 0.5 µM: read-out: % Enzyme Activity (relative to DMSO controls)
Sequence of 363 human kinases (including Aurora A/B/C) (Homo sapiens, UniProt O15075) (O15075 whole entry): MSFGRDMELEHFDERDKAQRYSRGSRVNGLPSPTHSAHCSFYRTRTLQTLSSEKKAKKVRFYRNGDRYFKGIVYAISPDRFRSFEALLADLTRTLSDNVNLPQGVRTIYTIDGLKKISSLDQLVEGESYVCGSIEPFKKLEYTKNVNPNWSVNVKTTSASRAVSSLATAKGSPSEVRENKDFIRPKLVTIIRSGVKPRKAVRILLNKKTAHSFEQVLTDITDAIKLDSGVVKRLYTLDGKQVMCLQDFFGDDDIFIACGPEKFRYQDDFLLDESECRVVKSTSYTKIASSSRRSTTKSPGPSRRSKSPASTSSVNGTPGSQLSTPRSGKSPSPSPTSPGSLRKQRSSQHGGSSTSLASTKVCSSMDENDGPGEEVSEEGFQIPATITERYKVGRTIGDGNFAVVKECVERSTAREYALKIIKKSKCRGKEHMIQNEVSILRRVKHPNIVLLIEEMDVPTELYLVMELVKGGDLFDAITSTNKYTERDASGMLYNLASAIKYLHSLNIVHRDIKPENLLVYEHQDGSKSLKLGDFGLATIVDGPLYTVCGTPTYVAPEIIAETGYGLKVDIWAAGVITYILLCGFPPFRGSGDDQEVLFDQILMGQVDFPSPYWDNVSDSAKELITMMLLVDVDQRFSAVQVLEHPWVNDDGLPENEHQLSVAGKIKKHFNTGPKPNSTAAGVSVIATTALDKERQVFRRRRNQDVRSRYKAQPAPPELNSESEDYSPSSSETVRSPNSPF
From the text: as §1

## CCn1cc(-c2ccnc3[nH]c(-c4cccc(CN(C)C)c4)cc23)c(-c2ccc(NC(=O)N(C)C)cc2)n1 [GSK1070916]
[1]
  remaining activity at 0.1 µM: 111%
[2]
  remaining activity at 0.1 µM: 96.5%
[3]
  remaining activity at 0.1 µM: 80.2%
[4]
  remaining activity at 0.1 µM: 108%
[5]
  remaining activity at 0.1 µM: 101%
[6]
  remaining activity at 0.1 µM: 84.3%
[7]
  remaining activity at 0.1 µM: 88.7%
[8]
  remaining activity at 0.1 µM: 109%
[9]
  remaining activity at 0.1 µM: 89.8%
[10]
  remaining activity at 0.1 µM: 114%

## O=C(O)[C@]1(Cc2cccc(Nc3nccs3)n2)CC[C@@H](Oc2cccc(Cl)c2F)CC1 [MK-5108]
[1]
  remaining activity at 0.1 µM: 106%
[1]; 500 nM
  remaining activity at 0.5 µM: 101%
[2]
  remaining activity at 0.1 µM: 95.4%
[2]; 500 nM
  remaining activity at 0.5 µM: 94.3%
[3]
  remaining activity at 0.1 µM: 78.2%
[3]; 500 nM
  remaining activity at 0.5 µM: 51.9%
[4]
  remaining activity at 0.1 µM: 102%
[4]; 500 nM
  remaining activity at 0.5 µM: 103%
[5]
  remaining activity at 0.1 µM: 99.8%
[5]; 500 nM
  remaining activity at 0.5 µM: 102%
[6]
  remaining activity at 0.1 µM: 94%
[6]; 500 nM
  remaining activity at 0.5 µM: 86.4%
[7]
  remaining activity at 0.1 µM: 104%
[7]; 500 nM
  remaining activity at 0.5 µM: 70.8%
[8]
  remaining activity at 0.1 µM: 95.9%
[8]; 500 nM
  remaining activity at 0.5 µM: 112%
[9]
  remaining activity at 0.1 µM: 95.3%
[9]; 500 nM
  remaining activity at 0.5 µM: 88.9%
[10]
  remaining activity at 0.1 µM: 108%
[10]; 500 nM
  remaining activity at 0.5 µM: 131%

## O=C(c1cccc(Cl)c1F)N1CCN(Cc2cccc(Nc3nccs3)n2)CC1 [MK-8745]
[1]; 500 nM
  % Enzyme Activity (relative to DMSO controls): 102.33%
  remaining activity at 0.5 µM: 105%
[2]; 500 nM
  % Enzyme Activity (relative to DMSO controls): 98.38%
  remaining activity at 0.5 µM: 99.7%
[3]; 500 nM
  % Enzyme Activity (relative to DMSO controls): 92.34%
  remaining activity at 0.5 µM: 95%
[4]; 500 nM
  % Enzyme Activity (relative to DMSO controls): 102.17%
  remaining activity at 0.5 µM: 104%
[5]; 500 nM
  % Enzyme Activity (relative to DMSO controls): 98.74%
  remaining activity at 0.5 µM: 98.9%
[6]; 500 nM
  % Enzyme Activity (relative to DMSO controls): 90.95%
  remaining activity at 0.5 µM: 91.3%
[7]; 500 nM
  % Enzyme Activity (relative to DMSO controls): 85.75%
  remaining activity at 0.5 µM: 88.1%
[8]; 500 nM
  % Enzyme Activity (relative to DMSO controls): 107.62%
  remaining activity at 0.5 µM: 110%
[9]; 500 nM
  % Enzyme Activity (relative to DMSO controls): 90.66%
  remaining activity at 0.5 µM: 92.9%
[10]; 500 nM
  % Enzyme Activity (relative to DMSO controls): 138.94%
  remaining activity at 0.5 µM: 142%
